{
  "source": "ChEMBL document CHEMBL1201862",
  "about": "“PubChem BioAssay data set” (2004)",
  "key": {"[1]": {"biological_target": "Tyrosyl-DNA phosphodiesterase 2 (Homo sapiens, UniProt O95551)", "sequence (O95551 whole entry)": "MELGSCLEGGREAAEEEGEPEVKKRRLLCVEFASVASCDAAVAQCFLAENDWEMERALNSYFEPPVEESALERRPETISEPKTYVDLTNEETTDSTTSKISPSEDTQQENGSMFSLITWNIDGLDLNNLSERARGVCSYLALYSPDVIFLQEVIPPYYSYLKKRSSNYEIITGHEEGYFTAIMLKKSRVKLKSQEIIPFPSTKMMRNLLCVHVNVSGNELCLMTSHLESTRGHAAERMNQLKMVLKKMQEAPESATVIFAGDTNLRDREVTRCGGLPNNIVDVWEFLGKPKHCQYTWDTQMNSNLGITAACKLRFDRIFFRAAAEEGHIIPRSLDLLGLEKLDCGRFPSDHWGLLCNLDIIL", "assay": "human TDP2 enzyme inhibitors, dose response, biochemical, epi absorbance, IC50 (AID 743297)"}, "[2]": {"biological_target": "T1, Heat shock factor protein 1 (Mus musculus, UniProt P38532)", "T1 sequence (P38532 whole entry)": "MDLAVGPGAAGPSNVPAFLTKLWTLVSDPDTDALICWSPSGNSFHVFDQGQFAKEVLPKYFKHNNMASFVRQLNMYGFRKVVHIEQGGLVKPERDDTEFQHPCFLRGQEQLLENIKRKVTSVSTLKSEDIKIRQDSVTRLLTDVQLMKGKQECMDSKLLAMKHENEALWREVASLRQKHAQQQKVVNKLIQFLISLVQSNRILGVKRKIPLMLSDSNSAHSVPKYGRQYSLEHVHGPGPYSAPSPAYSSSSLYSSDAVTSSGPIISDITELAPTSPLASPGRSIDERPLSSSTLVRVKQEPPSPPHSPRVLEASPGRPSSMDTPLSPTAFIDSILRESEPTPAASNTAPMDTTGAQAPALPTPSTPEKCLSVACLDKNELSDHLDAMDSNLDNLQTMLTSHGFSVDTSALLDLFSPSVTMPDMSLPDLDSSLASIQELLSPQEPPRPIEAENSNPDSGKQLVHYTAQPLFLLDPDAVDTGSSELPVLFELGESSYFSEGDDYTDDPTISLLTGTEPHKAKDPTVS", "assay": "HSF1 potentiators in luciferase reporter cells, confirmation, cell-based, NIH3T3, luminescence, dose retest (AID 435004);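 note: stress induced by proteasome inhibitor MG132 added 30 min after compound; actives raise luminescence as potentiators of the MG132 stress response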", "assay_type": "functional"}, "[3]": {"assay": "HeLa cell cytotoxicity, dose response, cytotoxicity control for MgcRacGAP inhibitor project (AID 624300)", "assay_type": "functional"}, "[4]": {"biological_target": "T2, Rac GTPase-activating protein 1 (Homo sapiens, UniProt Q9H0H5)", "T2 sequence (Q9H0H5 whole entry)": "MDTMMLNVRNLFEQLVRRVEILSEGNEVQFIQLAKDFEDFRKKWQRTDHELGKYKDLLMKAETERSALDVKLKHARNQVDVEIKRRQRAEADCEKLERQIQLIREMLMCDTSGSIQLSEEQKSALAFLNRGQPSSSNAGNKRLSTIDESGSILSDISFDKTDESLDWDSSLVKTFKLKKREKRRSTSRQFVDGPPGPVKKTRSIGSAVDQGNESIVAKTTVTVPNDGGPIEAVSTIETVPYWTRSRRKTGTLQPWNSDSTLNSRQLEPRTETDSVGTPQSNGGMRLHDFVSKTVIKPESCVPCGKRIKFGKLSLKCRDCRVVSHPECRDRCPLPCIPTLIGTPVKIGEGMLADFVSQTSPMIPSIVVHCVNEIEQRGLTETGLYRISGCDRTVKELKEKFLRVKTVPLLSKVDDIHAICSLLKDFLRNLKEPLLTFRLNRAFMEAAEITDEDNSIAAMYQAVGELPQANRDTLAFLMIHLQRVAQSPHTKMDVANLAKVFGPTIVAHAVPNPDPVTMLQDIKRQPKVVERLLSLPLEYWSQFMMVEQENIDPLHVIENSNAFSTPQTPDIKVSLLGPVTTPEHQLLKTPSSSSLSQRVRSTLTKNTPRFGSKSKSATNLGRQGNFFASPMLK", "assay": "MgcRacGAP GTPase-activating activity inhibitors, confirmation, biochemical, ADP Hunter fluorescence, primary and confirmatory (AID 624330)", "assay_type": "functional"}, "Paired box protein Pax-8": {"biological_target": "Paired box protein Pax-8 (Homo sapiens, UniProt Q06710)", "sequence (Q06710 whole entry)": "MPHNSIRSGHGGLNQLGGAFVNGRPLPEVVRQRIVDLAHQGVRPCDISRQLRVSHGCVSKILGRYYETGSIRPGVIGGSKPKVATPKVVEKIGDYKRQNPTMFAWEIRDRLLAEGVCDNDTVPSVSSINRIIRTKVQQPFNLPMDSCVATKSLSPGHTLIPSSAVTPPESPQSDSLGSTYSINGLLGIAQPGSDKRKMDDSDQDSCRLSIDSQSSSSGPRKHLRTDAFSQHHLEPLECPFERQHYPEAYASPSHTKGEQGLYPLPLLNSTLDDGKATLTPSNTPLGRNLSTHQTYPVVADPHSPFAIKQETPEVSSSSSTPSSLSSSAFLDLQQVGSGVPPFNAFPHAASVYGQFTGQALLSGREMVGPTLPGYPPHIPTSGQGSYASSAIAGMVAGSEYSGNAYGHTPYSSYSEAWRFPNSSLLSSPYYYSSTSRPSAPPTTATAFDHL", "assay": "inhibitors of PAX8-driven TPO luciferase reporter, dose response, RMG-I cells, cherry-pick (AID 687027);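 note: luciferase reporter driven by Pax8 target thyroperoxidase promoter measured by SteadyGlo luminescence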", "assay_type": "functional, cell-based"}, "[5]": {"assay": "cytotoxicity in OVCAR8 ovarian cancer cells, dose response, PAX8 project, cell-based, plate reader, dry powder samples (AID 743197)", "assay_type": "functional", "conditions": "OVCAR-8"}, "[6]": {"assay": "inhibitors of HIV Env-driven cell fusion, dose response, cherry-pick (AID 652057)", "assay_type": "functional, cell-based"}, "[7]": {"assay": "CEM21 lymphoblast cell cytotoxicity, dose response, cytotoxicity control for viral fusion inhibitor project, CellTiter-Glo luminescence, cherry-picked (AID 652042);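 note: potency for signal decrease meaning cytotoxicity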", "assay_type": "functional, cell-based"}, "[8]": {"assay": "inhibitors of clade B AD8 Env fusion, dose response, cell-based, cherry-pick (AID 652062);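 note: potency is for inhibitors of fusion seen as a drop in luminescence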", "assay_type": "functional"}, "cells [9]": {"assay": "cells", "assay_type": "functional, cell-based"}, "[10]": {"biological_target": "T3, Trace amine-associated receptor 1 (Homo sapiens, UniProt Q96RJ0)", "T3 sequence (Q96RJ0 whole entry)": "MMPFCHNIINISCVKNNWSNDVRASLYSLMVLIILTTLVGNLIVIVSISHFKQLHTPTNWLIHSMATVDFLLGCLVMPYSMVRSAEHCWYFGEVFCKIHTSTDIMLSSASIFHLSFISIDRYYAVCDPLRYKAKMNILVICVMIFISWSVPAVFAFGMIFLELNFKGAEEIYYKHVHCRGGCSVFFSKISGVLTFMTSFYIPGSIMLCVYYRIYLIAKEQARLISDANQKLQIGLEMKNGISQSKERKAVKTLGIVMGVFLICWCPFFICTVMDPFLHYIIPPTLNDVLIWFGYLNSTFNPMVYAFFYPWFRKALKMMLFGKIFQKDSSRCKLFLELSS", "assay": "Fluorescence-based cell-based high throughput dose response assay to identify agonists of the human trace amine associated receptor 1 (TAAR1).", "assay_type": "functional"}, "[11]": {"assay": "inhibitors of intracellular T. cruzi replication, confirmation, NIH3T3 host cells, beta-gal luminescence (AID 2044);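 note: luminescent beta-galactosidase reporter signal from transgenic T. cruzi replicating inside host cells; inhibitors lower the luminescence signal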", "assay_type": "functional, cell-based"}, "[12]": {"assay": "cytotoxicity toward NIH3T3 fibroblasts, dose response, counter-screen, cell-based, ATP luminescence, mouse fibroblasts (AID 2010);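 note: cells exposed to compound for about 90 hours before reading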", "assay_type": "functional"}, "cells [13]": {"assay": "cells", "assay_type": "functional, cell-based", "remark": "listed apart in the source"}, "[14]": {"biological_target": "T3, Trace amine-associated receptor 1", "assay": "Counterscreen for agonists of the human trace amine associated receptor 1 (hTAAR1): Fluorescence-based cell-based high throughput dose response assay to identify hTAAR1 agonist that also desensitize TAAR1 receptor response.", "assay_type": "functional"}, "[15]": {"biological_target": "Dual specificity tyrosine-phosphorylation-regulated kinase 1A (Rattus norvegicus, UniProt Q63470)", "assay_type": "biochemical, Homo sapiens"}, "[16]": {"assay": "HepG2 cell cytotoxicity, dose response, cytotoxicity control, ATP luminescence, cherry-pick, activator set 2 (AID 1053143)", "assay_type": "functional, cell-based"}, "[17]": {"biological_target": "5-hydroxytryptamine receptor 2A (Mus musculus, UniProt P35363)", "sequence (P35363 whole entry)": "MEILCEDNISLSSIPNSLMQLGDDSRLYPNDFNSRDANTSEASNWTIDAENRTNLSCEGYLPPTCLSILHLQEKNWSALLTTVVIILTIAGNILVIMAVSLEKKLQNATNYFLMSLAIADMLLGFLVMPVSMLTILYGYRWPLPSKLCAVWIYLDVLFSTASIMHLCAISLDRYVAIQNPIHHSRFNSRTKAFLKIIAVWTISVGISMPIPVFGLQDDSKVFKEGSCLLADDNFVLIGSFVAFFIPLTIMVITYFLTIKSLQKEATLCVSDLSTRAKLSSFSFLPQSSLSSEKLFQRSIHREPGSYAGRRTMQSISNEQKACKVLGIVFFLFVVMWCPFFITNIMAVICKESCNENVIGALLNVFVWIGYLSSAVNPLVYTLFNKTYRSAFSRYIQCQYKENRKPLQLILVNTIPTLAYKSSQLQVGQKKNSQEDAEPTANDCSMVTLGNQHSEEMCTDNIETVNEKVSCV", "assay_type": "functional, cell-based"}, "Mu-type opioid receptor": {"biological_target": "Mu-type opioid receptor (Homo sapiens, UniProt P35372)", "sequence (P35372 whole entry)": "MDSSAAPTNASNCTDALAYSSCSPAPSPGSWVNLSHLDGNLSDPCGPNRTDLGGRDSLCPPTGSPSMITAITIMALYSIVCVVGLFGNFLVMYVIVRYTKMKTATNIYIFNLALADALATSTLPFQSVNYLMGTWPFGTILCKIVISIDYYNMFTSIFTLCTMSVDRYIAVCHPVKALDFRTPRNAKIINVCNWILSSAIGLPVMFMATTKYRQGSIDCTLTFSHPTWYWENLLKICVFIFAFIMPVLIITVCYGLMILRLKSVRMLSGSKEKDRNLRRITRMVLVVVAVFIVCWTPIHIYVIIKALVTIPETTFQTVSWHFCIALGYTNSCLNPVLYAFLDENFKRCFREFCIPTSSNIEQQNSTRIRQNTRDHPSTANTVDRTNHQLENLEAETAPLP", "assay_type": "functional, cell-based"}},
  "note": "The source made the active and inactive calls.",
  "data": [
    {"smiles": "S=C(Nc1ccc2nsnc2c1)N1CCCC1", "values": [
      {"measurement": "IC50", "setting": "[1]", "value": "> 128 µM (inactive)"}
    ]},
    {"smiles": "O=S(=O)(c1ccc(Cl)c(NC(=S)N/N=C/c2ccc(O)cc2)c1)N1CCOCC1", "values": [
      {"measurement": "EC50", "setting": "[2]", "value": "> 260 µM (inactive)"},
      {"measurement": "CC50", "setting": "[3]", "value": "45.7 µM (active)"},
      {"measurement": "IC50", "setting": "[4]", "value": "47.6 µM (active)"}
    ]},
    {"smiles": "COc1cccc(S(=O)(=O)N(C)C[C@@H]2OCc3ccccc3-c3c(n(C)c4ccccc34)C(=O)N([C@@H](C)CO)C[C@@H]2C)c1", "values": [
      {"measurement": "AC50", "setting": "Paired box protein Pax-8", "value": "5.8 µM (active)"},
      {"measurement": "AC50", "setting": "[5]", "value": "> 70 µM (inactive)"},
      {"measurement": "AC50", "setting": "[6]", "value": "16.5 µM (active)"},
      {"measurement": "AC50", "setting": "[7]", "value": "34.8 µM (active)"},
      {"measurement": "AC50", "setting": "[8]", "value": "19.2 µM (active)"}
    ]},
    {"smiles": "CCCOc1ccc(OCCOCCN2CCc3ccccc3C2)cc1", "values": [
      {"measurement": "EC50", "setting": "cells [9]", "value": "> 29.9 µM (inactive)"},
      {"measurement": "EC50", "setting": "[10]", "value": "2.08 µM (active)"},
      {"measurement": "EC50", "setting": "[11]", "value": "0.205 µM (active)"},
      {"measurement": "EC50", "setting": "[12]", "value": "> 30 µM (not active)"},
      {"measurement": "IC50", "setting": "cells [13]", "value": "> 29.9 µM (inactive)"},
      {"measurement": "IC50", "setting": "[14]", "value": "> 3.32 µM (active)"}
    ]},
    {"smiles": "O=[N+]([O-])c1ccccc1-c1cc(-c2ccccc2O)n[nH]1", "values": [
      {"measurement": "AC50", "setting": "[15]", "value": "7.59 µM (active)"},
      {"measurement": "AC50", "setting": "[16]", "value": "26 µM (active)"}
    ]},
    {"smiles": "c1ccc(CN2CCN(c3ncccn3)CC2)cc1", "values": [
      {"measurement": "EC50", "setting": "[17]", "value": "0.235 µM (active)"},
      {"measurement": "EC50", "setting": "Mu-type opioid receptor", "value": "92.5 µM (inactive)"}
    ]}
  ]
}
